Measurements as given in US4851519A, “Pyrimidine derivatives” (Hoffmann-La Roche Inc., priority 1986, dated 1989).
pIC50: −log10 of the molar value.

Each molecule was assayed against herpes simplex virus type 2 (HSV-2) thymidine kinase (Human herpesvirus 2, UniProt P04407) (assay: inhibition of herpes simplex virus type 2 (HSV-2) thymidine kinase in vitro). Settings: not given.
Type: biochemical
Method: In this test, the assay mixture contains […] Tris-HCl, pH 8, 5 mM magnesium chloride, 5 mM ATP, 0.3 μM ^3 H-thymidine (50 Ci/mmol), suitably diluted thymidine kinase extract and various concentrations of a compound of formula I or a tautomer thereof in a total volume of 100 μl. Assays are incubated at 37° C. for 30 minutes and the reaction is terminated by immersion in a boiling water bath for 2 minutes. 85 μl aliquots from each assay are then dried on to DEAE-cellulose paper discs and the unphosphorylated ^3 H-thymidine is removed by washing in 4 mM ammonium formate. The radioactivity remaining bound to the discs is then measured by scintillation spectrophotometry. The degree of inhibition at each concentration of compound of formula I or tautomer thereof is expressed as a percentage of the control reaction (100%) after substracting a measured blank value which represents the amount of radioactivity bound to the disc from a reaction containing heat inactivated enzymes. the IC50 value, namely, the concentration of compound of formula I or tautomer thereof which inhibits enzyme activity by 50%, is then calculated. The results obtained with representative compounds of formula I are complied in the following Table: […]

Chain of herpes simplex virus type 2 (HSV-2) thymidine kinase (P04407 whole entry): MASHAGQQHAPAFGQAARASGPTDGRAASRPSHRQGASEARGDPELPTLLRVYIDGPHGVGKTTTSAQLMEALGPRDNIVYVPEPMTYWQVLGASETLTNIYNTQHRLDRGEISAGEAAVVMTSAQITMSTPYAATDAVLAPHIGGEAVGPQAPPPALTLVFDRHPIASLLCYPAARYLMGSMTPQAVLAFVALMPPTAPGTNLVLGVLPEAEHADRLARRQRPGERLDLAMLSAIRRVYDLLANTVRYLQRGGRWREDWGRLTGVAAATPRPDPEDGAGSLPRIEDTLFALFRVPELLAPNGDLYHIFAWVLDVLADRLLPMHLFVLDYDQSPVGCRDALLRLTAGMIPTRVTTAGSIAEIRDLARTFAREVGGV

Work on `CCc1cn([C@H]2C[C@H](O)[C@@H](CNC(=O)Cc3c(Cl)cccc3Cl)O2)c(=O)[nH]c1=O` [Compound B, 5'-[2-(2,6-dichlorophenyl)acetamido]-2',5'-dideoxy-5-ethyluridine] yielded a pIC50 of 8.52.

Same assay, conditions: HSV-2 thymidine kinase extract; 0.3 μM 3H-thymidine, 5 mM ATP, pH 8, 37° C., 30 minutes; read-out: IC50 (concentration which inhibits enzyme activity by 50%)

`CCc1cn([C@H]2C[C@H](O)[C@@H](CNC(=O)C(C)Oc3ccc(Cl)cc3Cl)O2)c(=O)[nH]c1=O` (mixture of isomers) [Compound C, 5'-[2(RS)-(2,4-dichlorophenoxy)propionamido]-2',5'-dideoxy-5-ethyluridine] and `CCCc1cn([C@H]2C[C@H](O)[C@@H](CNC(=O)C(C)Oc3ccc(Cl)cc3Cl)O2)c(=O)[nH]c1=O` (mixture of isomers) [Compound K, 5'-[2(RS)-(2,4-dichlorophenoxy)propionamido]-2',5'-dideoxy-5-propyluridine] are within 0.2 log units of each other in pIC50: 8.43 for the first, 8.46 for the second.

Compared with `CCc1cn([C@H]2C[C@H](O)[C@@H](CNC(=O)C(C)Oc3ccccc3-c3ccccc3)O2)c(=O)[nH]c1=O` (mixture of isomers) [Compound E, 2',5'-dideoxy-5-ethyl-5'-[2(RS)-(2-phenylphenoxy)propionamido]uridine], `CCc1cn([C@H]2C[C@H](O)[C@@H](CNC(=O)Cc3ccc(-c4ccccc4)cc3)O2)c(=O)[nH]c1=O` [Compound D, 5'-[2-(4-biphenylyl)acetamido]-2',5'-dideoxy-5-ethyluridine] is 1.15 log units lower in pIC50: 8.30 for the first, 7.15 for the second.

Compared with `CCc1cn([C@@H]2O[C@H](CNC(=O)C(C)Oc3ccc(Cl)cc3Cl)[C@@H](O)[C@@H]2F)c(=O)[nH]c1=O` (mixture of isomers) [Compound F, 1-[5-[2-(RS)-(2,4-dichlorophenoxy)propionamido]-2,5-dideoxy-2-fluoro-β-D-arabinofuranosyl]-5-ethyluracil], `CCc1cn([C@H]2C[C@H](O)[C@@H](CNC(=O)C(C)Oc3cc(Cl)c(Cl)cc3Cl)O2)c(=O)[nH]c1=O` (mixture of isomers) [Compound G, 5'-[2(RS)-(2,4,5-trichlorophenoxy)propionamido]-2',5'-dideoxy-5-ethyluridine] is 0.49 log units higher in pIC50: 8.40 for the first, 8.89 for the second. The second is the more potent here.

First: CCc1cn([C@H]2C[C@H](O)[C@@H](CNC(=O)C(C)Oc3ccc(Cl)cc3[N+](=O)[O-])O2)c(=O)[nH]c1=O (mixture of isomers) [Compound H, 5'-[2(RS)-(4-chloro-2-nitrophenoxy)propionamido]-2',5'-dideoxy-5-ethyluridine]
Second: CCc1cn([C@H]2C[C@H](O)[C@@H](CNC(=O)C(C)Oc3cc(OC)c(Cl)cc3Cl)O2)c(=O)[nH]c1=O (mixture of isomers) [Compound J, 5'-[2(RS)-(2,4-dichloro-5-methoxyphenoxy)propionamido]-2',5'-dideoxy-5-ethyluridine]
The pIC50 of the first is 0.35 log units lower: 8.57 for the first, 8.92 for the second.

First: CCc1cn([C@H]2C[C@H](O)[C@@H](CNC(=O)C(Oc3ccc(Cl)cc3Cl)c3ccccc3)O2)c(=O)[nH]c1=O (mixture of isomers) [Compound I, 5'-[2(RS)-(2,4-dichlorophenoxy)-2-phenylacetamido]-2',5'-dideoxy-5-ethyluridine]
Second: CCc1cn([C@H]2C[C@H](O)[C@@H](CNC(=O)Cc3ccccc3Br)O2)c(=O)[nH]c1=O [Compound A, 5'-[2-(2-bromophenyl)acetamido]-2',5'-dideoxy-5-ethyluridine]
The pIC50 of the first is 0.63 log units higher: 8.33 for the first, 7.70 for the second.
